The text below walks through data of patent US11579147B2, “Use of VNN1 as a biomarker and a therapeutic target in sarcomas” (INSERM (Institut National de la Santé et de la Recherche …, priority 2017, dated 2023).

The test system of assay [1] is CoA levels. Briefly: coenzyme A levels in tumors. Particulars: administration to mice bearing R tumors. The format is in vivo. The text has this: (§1) Since pantetheinase hydrolyses pantetheine into pantothenate and cysteamine, we searched for more specific actions. We first focused on pantothenate which could be detected by LC-MS analysis. […] Accordingly, we found some significant variations in the levels of various metabolites involved in the regulation of the TCA cycle.

Assay [2] concerns various metabolites analyzed by LC-MS. Nature of the assay: LC-MS analysis of tumor metabolites. Type of assay: in vivo. Conditions: administration to tumor-bearing mice.
Description: as §1

For assay [3], the system named is GSH levels. Briefly: GSH levels in tumor tissue extracts. The format is in vivo. Particulars: administration to tumor-bearing mice, data not shown.
Description: as §1

Assay [4] has as its system myofibroblast cell lines (J2A, H1 or I1). Briefly: in vitro growth of Ras-transfected myofibroblast cell lines. The format is cell-based, mouse. Particulars: data not shown. The text has this: Given the slow rate of tumor development and the rare emergence of STS in Vnn1+/+ mice, we developed new transplantable STS models. The different tumors derived from three independent myofibroblast cell lines (J2A, H1 or I1) were subcutaneously grafted in Nude mice. […] Since pantetheinase activity releases pantothenate and cysteamine in vivo, we tested the effect of these compounds on in vitro and in vivo growth.

The test system of assay [5] is collagen I or caveolin I genes. Briefly: qRT-PCR of differentiation genes in enriched tumor cells depleted of CD45+ cells. Particulars: cysteamine-treated R tumor cells. Type of assay: in vivo, mice. The text has this:
We then performed a similar analysis using RNA extracted from enriched R, cysteamine-treated R and VR tumor cells depleted of CD45+ hematopoietic cells. […] Therefore, Vnn1 expression is associated with a differentiated grade of tumors which is not recapitulated by CEA administration.
For orientation: In qPCR the cycle at which signal appears reflects the starting amount.

For assay [6], the system named is Ras expressing tumors (R). Briefly: growth of tumors subcutaneously grafted in Nude mice. The format is in vivo. Particulars: administered to grafted mice, FIG. 4. The text has this:
The different tumors derived from three independent myofibroblast cell lines (J2A, H1 or I1) were subcutaneously grafted in Nude mice. […] Since pantetheinase activity releases pantothenate and cysteamine in vivo, we tested the effect of these compounds on in vitro and in vivo growth.

Each structure is given as a SMILES string. Entries after “also recorded” stand apart in the source; their conditions may differ.

As for `NCCS` [cysteamine, 2-aminoethanethiol], in assay [1], the “CoA levels in tumors” value is “only moderately enhanced”. The “impact on the various metabolites analyzed by LC-MS” value in assay [2] is “could not detect a significant impact”. In addition, the “GSH levels in tissue extracts” value in assay [3] is recorded as “reduction in GSH levels”. Moreover, the “growth of cell lines in vitro” value in assay [4] is “reduced the growth of all cell lines”. The “expression of collagen I or caveolin I genes” value in assay [5] was “not able to induce the expression”. The “tumor growth in grafted mice” value in assay [6] was “inhibits tumor growth; also recorded: reduced the growth”.

Consider `CC(C)(CO)[C@@H](O)C(=O)NCCC(=O)O` [pantothenate, 3-[(2R)-(2,4-Dihydroxy-3,3-dimethylbutanoyl)amino]propanoic acid], for which, in assay [4], the “growth of cell lines in vitro” value was “no effect”.
